Results reported in patent US6683085B2, “Salt form and polymorphs” (Pfizer Inc., priority 2000, dated 2004).
Where a name gives a salt, the structure may show the parent alone. Values belong to the compound of their own block, whether it stands above or below them.

Experiments:
[1] = Hygroscopicity at 90% RH; type: physicochemical; conditions: for Hygroscopity % (w/w) at 90% RH: Table 4, polymorphic forms of the free base
[2] = Solubility of the mesylate salt and free base forms; type: physicochemical
[3] = Moisture sorption at 30° C. and 45% RH; type: physicochemical
[4] = Water content of the hydrated form of the free base; type: physicochemical
Excerpt: The water content of the hydrated form of the free base (Form D) at ambient conditions is commonly of the order of 9 to 10% (w/w). This is equivalent to 2.5 to 2.8 moles of water per mole of the free base. […] The first mole was lost below 5% RH the second retained down to 1% RH see FIG. 11. It is likely that extended storage of the hydrated form below about 18% RH would result in dehydration. Furthermore, removal of the crystalline water results in the loss of the crystal lattice, the product being predominantly amorphous. This highlights a potential problem in using the conventional hydrated form in manufacturing a pharmaceutical formulation. Dehydration was observed on thermal analysis as a broad double endotherm at 97/113° C. (See FIG. 8)

[5] = tested on: male and female Sprague-Dawley rats; test: Daily oral administration to rats for 1 month; type: in vivo; conditions: rat, 30 mg/kg for 1 month
[6] = Stability over a wide range of conditions; type: physicochemical; conditions: e.g. high light intensity

Hygroscopicity % (w/w) at 90% RH ([1]; 90% RH, Table 1, mesylate salt): 1.1 % (w/w)
Hygroscopicity compared with another form ([1]; over a wide range of relative humidity, comparison in words): substantially lower than the free base
Solubility ([2]; 0.9% sodium chloride at 22° C., mesylate): 120 micrograms/ml
Solubility ([2]; Water at 22° C., mesylate): 880 micrograms/ml
Moisture sorption (% w/w) at 30° C. and 45% RH ([3]; listed as Mesylate salt (mpt 279° C.), mesylate): 0.56 % w/w
Stability [6]: good stability
Compound: COc1cc2nc(N3CCc4c(cccc4NS(C)(=O)=O)C3)nc(N)c2c(-c2ccccn2)c1OC [Mesylate salt, 4-amino-6,7-dimethoxy-2-(5-methanesulfonamido-1,2,3,4-tetrahydroisoquinol-2-yl)-5-(2-pyridyl)quinazoline mesylate]
Adverse effects [5]: no evidence of adverse effects
Changes linked to the pharmacological activity [5]: induced changes linked to the pharmacological activity of the compound

Hygroscopity % (w/w) at 90% RH ([1]; 90% RH): 0.045 % (w/w)
Compound: COc1cc2nc(N3CCc4c(cccc4NS(C)(=O)=O)C3)nc(N)c2c(-c2ccccn2)c1OC [Form E, 4-Amino-6,7-dimethoxy-2-(5-methanesulfonamido-1,2,3,4-tetrahydroisoquinol-2-yl)-5-(2-pyridyl)quinazoline]

Second part, the compound before the results:

Compound: COc1cc2nc(N3CCc4c(cccc4NS(C)(=O)=O)C3)nc(N)c2c(-c2ccccn2)c1OC [Form D, 4-Amino-6,7-dimethoxy-2-(5-methanesulfonamido-1,2,3,4-tetrahydroisoquinol-2-yl)-5-(2-pyridyl)quinazoline, reference compound]
Hygroscopity % (w/w) at 90% RH ([1]; 90% RH): 12.8 % (w/w)
Solubility ([2]; 0.9% sodium chloride at 22° C., listed as Hydrated form of free base): 4 micrograms/ml
Solubility ([2]; Water at 22° C., listed as Hydrated form of free base): 12 micrograms/ml
Moisture sorption (% w/w) at 30° C. and 45% RH ([3]; listed as Hydrated form of free base): 11.24 % w/w
Water content ([4]; 90% RH): 12.8 % (w/w)
Water content, moles of water ([4]; 90% RH): 3.6 moles of water
Water content ([4]; ambient conditions): 9 to 10 % (w/w)
Water content, moles of water per mole of the free base ([4]; ambient conditions): 2.5 to 2.8 moles of water per mole of the free base

Compound: COc1cc2nc(N3CCc4c(cccc4NS(C)(=O)=O)C3)nc(N)c2c(-c2ccccn2)c1OC [Form B, 4-Amino-6,7-dimethoxy-2-(5-methanesulfonamido-1,2,3,4-tetrahydroisoquinol-2-yl)-5-(2-pyridyl)quinazoline]
Hygroscopity % (w/w) at 90% RH ([1]; 90% RH): 0.27 % (w/w)

Compound: COc1cc2nc(N3CCc4c(cccc4NS(C)(=O)=O)C3)nc(N)c2c(-c2ccccn2)c1OC [Form A, 4-Amino-6,7-dimethoxy-2-(5-methanesulfonamido-1,2,3,4-tetrahydroisoquinol-2-yl)-5-(2-pyridyl)quinazoline]
Hygroscopity % (w/w) at 90% RH ([1]; 90% RH): 2.2 % (w/w)
Solubility ([2]; 0.9% sodium chloride at 22° C., listed as Free base (mpt 198° C.)): 36 micrograms/ml
Solubility ([2]; Water at 22° C., listed as Free base (mpt 198° C.)): 420 micrograms/ml
Moisture sorption (% w/w) at 30° C. and 45% RH ([3]; listed as Free base (mpt 198° C.)): 1.39 % w/w
